From US20110039763A1, “TARGETED ANTIMICROBIAL MOIETIES” (C3 JIAN, INC., priority 2009, published 2011)
Entries after “also recorded” stand apart in the source; their conditions may differ.

system: microorganisms; assay: Targeting peptide binding to target microorganisms (Tables 3, 10, 12); settings: microorganism(s) the targeting peptide binds; binding in aqueous buffers varied with peptide solubility, preferably 1x PBS

Substance | Target(s)
PF-365 (LYKQKIQLEEELEKLKDDRQ; Peptide with targeting and/or antimicrobial activity) | S. epidermidis; also recorded: B. subtilis; also recorded: B. fragilis; also recorded: P. aeruginosa; also recorded: C. albicans
PF-367 (TKTPGTFTPGTGIQKTAVPL; Peptide with targeting and/or antimicrobial activity) | B. subtilis
PF-368 (MLKQTA; Peptide with targeting and/or antimicrobial activity) | C. jeikeium; also recorded: C. jejuni
PF-371 (TFIYNEF; Peptide with targeting and/or antimicrobial activity) | S. epidermidis; also recorded: B. fragilis; also recorded: C. jejuni
PF-372 (KKQDKRIEDKYKRMKKGD; Peptide with targeting and/or antimicrobial activity) | C. jeikeium; also recorded: C. jejuni
PF-384 (HISKERFEAY; Peptide with targeting and/or antimicrobial activity) | E. faecalis; also recorded: C. jeikeium; also recorded: C. jejuni
PF-388 (ITPLLDEIGKVCIDKISK; Peptide with targeting and/or antimicrobial activity) | E. faecalis; also recorded: C. jeikeium; also recorded: C. jejuni
PF-400 (VIAWKFRNKFENSGV; Peptide with targeting and/or antimicrobial activity) | S. epidermidis; also recorded: E. coli; also recorded: S. pneumoniae; also recorded: E. faecalis; also recorded: C. jeikeium
PF-402 (FIDVLKSKINEFLN; Peptide with targeting and/or antimicrobial activity) | S. epidermidis; also recorded: P. aeruginosa; also recorded: E. faecalis; also recorded: C. jejuni
PF-409 (DLVQSILSEFKKSG; Peptide with targeting and/or antimicrobial activity) | S. epidermidis and MRSA and C. jeikeium and C. jejuni
PF-412 (TSGWLGQLEQ; Peptide with targeting and/or antimicrobial activity) | M. luteus; also recorded: E. coli; also recorded: C. albicans; also recorded: C. jeikeium; also recorded: C. jejuni
PF-435 (MSRWDGHSDKGEAPAGKPPMHGFGLNGENK; Peptide with targeting and/or antimicrobial activity) | C. jeikeium
PF-436 (KKHVLVGKQEKNG; Peptide with targeting and/or antimicrobial activity) | C. jeikeium
PF-438 (QPYFQNQFKKITGYTPLQYRKEKR; Peptide with targeting and/or antimicrobial activity) | S. epidermidis; also recorded: E. coli; also recorded: S. pneumoniae; also recorded: C. jeikeium; also recorded: C. jejuni
PF-441 (TQVHKMARGIDPGPANGIYR; Peptide with targeting and/or antimicrobial activity) | C. jeikeium
PF-463 (MVILVFSLIFIFTDNYLVYQSKSIKEDVMI; Peptide with targeting and/or antimicrobial activity) | S. epidermidis; also recorded: E. coli; also recorded: P. aeruginosa; also recorded: C. albicans; also recorded: S. pneumoniae; also recorded: E. faecalis; also recorded: M. smegmatis
PF-481 (DELYEIMDKVIEEFNKDIEQNNNNGNNEDLTENKIN; Peptide with targeting and/or antimicrobial activity) | C. jeikeium
PF-483 (EDNKDKKDKKDK; Peptide with targeting and/or antimicrobial activity) | P. mirabilis; also recorded: C. jeikeium; also recorded: C. jejuni
PF-486 (MQKEGEEDY; Peptide with targeting and/or antimicrobial activity) | S. mutans

Substance | Target(s)
PF-487 (MYKAIAVLAMTIMAFFIFVYPFFIVGLILG; Peptide with targeting and/or antimicrobial activity) | S. mutans; also recorded: E. coli
PF-488 (YPNEQGHHKNNLKNIIIE; Peptide with targeting and/or antimicrobial activity) | S. mutans; also recorded: E. coli
PF-489 (KVDRVSTTITEKIK; Peptide with targeting and/or antimicrobial activity) | S. mutans
PF-490 (RLILVSGNATVQK; Peptide with targeting and/or antimicrobial activity) | S. mutans; also recorded: E. coli
PF-491 (IHQYSSKPDIVGQEAKTVQQINS; Peptide with targeting and/or antimicrobial activity) | S. mutans; also recorded: E. coli
PF-492 (IQIDAASFYSISKSTIK; Peptide with targeting and/or antimicrobial activity) | S. mutans; also recorded: B. subtilis; also recorded: E. coli
PF-493 (PGAFFFCRGRGCWCGIGW; Peptide with targeting and/or antimicrobial activity) | S. mutans; also recorded: B. subtilis; also recorded: E. coli
PF-494 (FTEPLRPLQAKGQIISIKPSTSSS; Peptide with targeting and/or antimicrobial activity) | S. mutans
PF-495 (KGIYKKRTY; Peptide with targeting and/or antimicrobial activity) | S. mutans; also recorded: E. coli
PF-496 (EVTKRLVALAQQQLRG; Peptide with targeting and/or antimicrobial activity) | S. mutans; also recorded: E. coli
PF-498 (MSEEEEVSEKVYNYLRRNEFFEVRKEEFSA; Peptide with targeting and/or antimicrobial activity) | S. mutans; also recorded: E. coli
PF-500 (MGIFKEEKIKFIDCKGEEVILKIKIKDIKK; Peptide with targeting and/or antimicrobial activity) | S. mutans; also recorded: E. coli
PF-501 (GSTAHKSPIGSTNNQWGMKKTPTD; Peptide with targeting and/or antimicrobial activity) | S. mutans
PF-502 (NKGKQMQDQTGKQPIVDNG; Peptide with targeting and/or antimicrobial activity) | S. mutans
PF-503 (VVTLKDIVAVIEDQGYDVQ; Peptide with targeting and/or antimicrobial activity) | S. mutans
PF-504 (ILSVELSTKTSASGS; Peptide with targeting and/or antimicrobial activity) | S. mutans; also recorded: E. coli
PF-505 (GYTKDPGTGI; Peptide with targeting and/or antimicrobial activity) | S. mutans
PF-506 (SGRGFALIVVLFILLIIVGAACIR; Peptide with targeting and/or antimicrobial activity) | S. mutans; also recorded: E. coli
PF-507 (LALSIANLFKKKA; Peptide with targeting and/or antimicrobial activity) | S. mutans; also recorded: E. coli

Substance | Target(s)
PF-508 (VSTFGKVVKVVDEK; Peptide with targeting and/or antimicrobial activity) | S. mutans
PF-509 (EAKVQAKGEQIACNNY; Peptide with targeting and/or antimicrobial activity) | S. mutans; also recorded: B. subtilis; also recorded: E. coli
PF-510 (WYLYKKQSNQNDRGIPK; Peptide with targeting and/or antimicrobial activity) | S. mutans; also recorded: E. coli
PF-568 (TQAVQVKTAQAQQQ; Peptide with targeting and/or antimicrobial activity) | S. epidermidis
PF-570 (KKFPTEESHIQAVLEFKKLTEHPSG; Peptide with targeting and/or antimicrobial activity) | S. pneumoniae; also recorded: C. jeikeium
PF-641 (SWKCHHLAIGGSWKCHHLAI; Peptide with targeting and/or antimicrobial activity) | S. epidermidis and M. luteus and E. coli and C. albicans and MRSA and E. faecalis and C. jeikeium and C. jejuni
PF-648 (ARRYPAAGS; Peptide with targeting and/or antimicrobial activity) | S. mutans; also recorded: E. coli
PF-650 (IRSDQPGRQSRSSPRWPTGAGRHR; Peptide with targeting and/or antimicrobial activity) | Mycobacteria spp
PF-669 (RADRIESYPADGDRVITLWRNPYR; Peptide with targeting and/or antimicrobial activity) | Mycobacteria spp
PF-671 (TVSAFRTVH; Peptide with targeting and/or antimicrobial activity) | S. mutans; also recorded: E. coli
PF-673 (VRRLRM; Peptide with targeting and/or antimicrobial activity) | S. mutans; also recorded: E. coli
PF-674 (DGCDSEPALTYR; Peptide with targeting and/or antimicrobial activity) | S. mutans; also recorded: E. coli
PF-676 (AEYRGL; Peptide with targeting and/or antimicrobial activity) | S. mutans; also recorded: E. coli
PF-678 (RDRRWTRRDMYDWLESARV; Peptide with targeting and/or antimicrobial activity) | Mycobacteria spp
PF-679 (CRARFIRR; Peptide with targeting and/or antimicrobial activity) | S. mutans; also recorded: E. coli
PF-689 (SAPSG; Peptide with targeting and/or antimicrobial activity) | S. mutans; also recorded: E. coli
PF-701 (PRGAQSGHG; Peptide with targeting and/or antimicrobial activity) | S. mutans
PF-703 (MTTVDNIVGLVIAVALMAFLFAALLFPEKF; Peptide with targeting and/or antimicrobial activity) | Mycobacteria spp
